Here are results for 12 compounds from ChEMBL document CHEMBL1127297, “Isolation and structure/activity features of halomon-related antitumor monoterpenes from the red alga Portieria hornemannii” (1994).

Each structure is given as a SMILES string.

The first experiment deals with Tumor Cell line. Description: Tested for in vitro cytotoxicity of 60 human tumor cell lines in National Cancer Institute (NCI). It counts as functional.
Settings: not given
For orientation: GI50 means the concentration giving 50% growth inhibition. Higher therefore signals lower sensitivity of the cells. In general, TGI refers to the concentration giving total growth inhibition. A low value points to greater sensitivity of the cells. The compound `C=CC1=CCC(Br)C(C)(C)C1Cl` (stereo unspecified) yielded a 50% growth inhibitory concentration (GI50) of more than 100 µM and a TGI of more than 100 µM.
The compound `CC1(C)C(Br)=C(C(Cl)CBr)CCC1Br` (stereo unspecified) showed a concentration for 50% growth inhibition (GI50) of 21.9 µM and a concentration for total growth inhibition (TGI) of 45.7 µM.
Taken in the same sequence, the figures for `C=C[C@](Cl)(CBr)CC[C@@H](Br)C(C)(C)Cl` were 26.1 µM and 77 µM.
`C=CC(Cl)(CBr)CCC=C(C)C` (stereo unspecified) returned a GI50 of 33.1 µM and a total growth inhibition concentration (TGI) of more than 100 µM.
With `CC1(C)C(Cl)CC(Br)/C(=C\CCl)C1Cl` (stereo unspecified), the concentration for 50% growth inhibition (GI50) worked out at 1.15 µM and the TGI worked out at 4.68 µM.
With `CC1(C)[C@H](Cl)C=C/C(=C\CCl)[C@@H]1Cl`, the GI50 came to 20 µM and the total growth inhibition concentration (TGI) was determined as 47.9 µM.
Consider `C=C(Cl)/C(=C\Br)CCC=C(C)C`, for which it took 19.5 µM to inhibit growth by half (GI50) and the total growth inhibition concentration (TGI) amounted to 44.7 µM.
Taken in the same sequence, the figures for `C=C(Cl)[C@](Cl)(CBr)CC[C@@H](Br)C(C)(C)Cl` [HALOMON] were 0.676 µM and 3.02 µM.
The matching figures for `C=C(Cl)[C@](Cl)(CBr)CCC(Cl)=C(C)C`: 0.741 µM and 3.39 µM.
Taken in the same sequence, the figures for `C=C(Cl)[C@](Cl)(CBr)CCC(Br)=C(C)C` were 0.691 µM and 3.02 µM.
`C=C(Cl)[C@](Cl)(CBr)CC[C@H](Cl)C(C)(C)Br` registered a concentration for 50% growth inhibition (GI50) of 1.32 µM and a TGI of 4.47 µM.
The matching figures for `C=C(Cl)[C@](Cl)(CBr)CCC=C(C)C`: 47 µM and more than 100 µM.

In the next experiment the test system is Tumor Cell line. Description: Tested for in vitro cytotoxicity of 60 human tumor cell lines in National Cancer Institute (NCI) and the value was expressed as LC50. It counts as functional. The following applies: read-out: LC50 (the source's name).
For the compound `C=CC1=CCC(Br)C(C)(C)C1Cl` (stereo unspecified), the CC50 was more than 100 µM.
Still for that read-out and setting: for `CC1(C)C(Br)=C(C(Cl)CBr)CCC1Br` (stereo unspecified) the value was 93.3 µM.
Still for that read-out and setting: with `C=C[C@](Cl)(CBr)CC[C@@H](Br)C(C)(C)Cl` the figure was more than 100 µM; with `C=CC(Cl)(CBr)CCC=C(C)C` (stereo unspecified), more than 100 µM.
On the same count and under the same terms, for `CC1(C)C(Cl)CC(Br)/C(=C\CCl)C1Cl` (stereo unspecified) the value was 20 µM; for `CC1(C)[C@H](Cl)C=C/C(=C\CCl)[C@@H]1Cl`, more than 100 µM; for `C=C(Cl)/C(=C\Br)CCC=C(C)C`, more than 100 µM.
For `C=C(Cl)[C@](Cl)(CBr)CC[C@@H](Br)C(C)(C)Cl` [HALOMON], the CC50 was 11.5 µM.
Consider `C=C(Cl)[C@](Cl)(CBr)CCC(Cl)=C(C)C`, for which the CC50 was found to be 17 µM.
The same measure, in the same setting: with `C=C(Cl)[C@](Cl)(CBr)CCC(Br)=C(C)C` the figure was 13.5 µM.
The same measure, in the same setting: with `C=C(Cl)[C@](Cl)(CBr)CC[C@H](Cl)C(C)(C)Br` the figure was 16.2 µM; with `C=C(Cl)[C@](Cl)(CBr)CCC=C(C)C`, more than 100 µM.
